These results are taken from patent US9796733B2, “Imidazo-pyrazine derivatives useful as soluble guanylate cyclase activators” (Merck Sharp & Dohme Corp., priority 2014, dated 2017).

For orientation: EC50 means the concentration needed to bring the measured effect to its halfway point. A lower EC50 goes with higher potency in that assay.

This experiment addresses T1, sGC α1/β1 heterodimer (Homo sapiens, UniProt Q02108+Q02153).
T1 construct: expressed in transfected cells; host or cells: CHO-K1 (clone #7, CHO-K1/sGC)
T1 sequence (Q02108 1-690): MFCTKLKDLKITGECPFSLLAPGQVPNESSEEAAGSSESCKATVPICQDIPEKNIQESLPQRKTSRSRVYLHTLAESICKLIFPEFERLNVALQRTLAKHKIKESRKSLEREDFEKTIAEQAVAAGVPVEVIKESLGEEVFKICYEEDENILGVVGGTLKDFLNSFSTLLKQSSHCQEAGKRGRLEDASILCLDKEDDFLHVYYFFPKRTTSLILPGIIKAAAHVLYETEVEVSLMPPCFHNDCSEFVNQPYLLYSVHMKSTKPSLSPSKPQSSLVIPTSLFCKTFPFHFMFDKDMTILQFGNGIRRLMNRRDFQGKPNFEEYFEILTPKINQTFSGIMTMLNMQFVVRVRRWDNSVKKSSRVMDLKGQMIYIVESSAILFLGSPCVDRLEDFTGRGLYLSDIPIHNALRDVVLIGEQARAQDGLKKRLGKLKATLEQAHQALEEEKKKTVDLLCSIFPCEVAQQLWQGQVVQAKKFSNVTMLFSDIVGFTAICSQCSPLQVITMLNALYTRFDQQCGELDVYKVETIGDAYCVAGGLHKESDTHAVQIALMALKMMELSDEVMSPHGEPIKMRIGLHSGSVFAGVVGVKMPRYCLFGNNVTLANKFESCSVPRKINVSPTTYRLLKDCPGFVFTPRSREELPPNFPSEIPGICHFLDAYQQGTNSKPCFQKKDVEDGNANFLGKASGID
T1 sequence (Q02153 1-619): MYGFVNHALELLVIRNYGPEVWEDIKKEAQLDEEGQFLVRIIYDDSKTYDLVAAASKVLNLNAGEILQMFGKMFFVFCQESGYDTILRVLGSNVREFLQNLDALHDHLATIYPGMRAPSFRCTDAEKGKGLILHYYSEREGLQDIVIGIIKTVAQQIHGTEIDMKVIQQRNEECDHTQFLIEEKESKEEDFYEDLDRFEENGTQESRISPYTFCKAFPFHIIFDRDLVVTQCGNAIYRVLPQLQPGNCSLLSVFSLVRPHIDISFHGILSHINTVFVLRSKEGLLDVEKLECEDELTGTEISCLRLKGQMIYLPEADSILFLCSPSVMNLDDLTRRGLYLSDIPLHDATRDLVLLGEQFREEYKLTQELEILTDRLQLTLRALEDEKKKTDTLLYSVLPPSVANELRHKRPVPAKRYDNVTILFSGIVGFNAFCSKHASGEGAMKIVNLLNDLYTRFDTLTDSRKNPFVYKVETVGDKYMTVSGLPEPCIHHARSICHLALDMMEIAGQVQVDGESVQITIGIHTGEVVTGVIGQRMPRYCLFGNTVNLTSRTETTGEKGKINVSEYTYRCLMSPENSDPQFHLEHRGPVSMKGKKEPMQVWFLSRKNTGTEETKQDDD
Put plainly: Cell-based sGC functional assay (CASA assay): cGMP generation in CHO-K1/sGC cells, HTRF detection. The note with it: for Emax: CHO-K1, percent activation relative to standard Compound A in CHO-K1/sGC cells, read-out: % Act.; for EC50: inflection point (IP) of cGMP generation in CHO-K1/sGC cells, 4P fit, activity expressed as percentage of Compound A. An outline of the steps: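 cGMP was quantified by HTRF after 1 hr, 37° C exposure of thawed CHO-K1 cells expressing sGC α1/β1 to compound, with or without 1 μM DETA-NO. IBMX (0.5 mM) blocked cGMP breakdown, and DMSO was 2.5% final. Percent of standard Compound A's maximal cGMP was fitted (4P) for inflection point.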
A general note: In TR-FRET formats the signal depends on donor and acceptor labels being close together.

For `CC1(c2ccc(Cl)cc2)C(=O)Nc2nc(-c3cn4ccnc4cn3)nc(N3CCC(C(F)(F)F)CC3)c21` (stereo not drawn) [Example 280A, 5-(4-chlorophenyl)-2-(imidazo[1,2-a]pyrazin-6-yl)-5-methyl-4-(4-(trifluromethyl)piperdin-1-yl)-5H-pyrrolo[2,3-d]pyrimidin-6(7H)-one], the Emax is 102% and the EC50 came to 124 nM.

Regarding `CC(C)C1(C)C(=O)Nc2nc(-c3cn4ccnc4c(Cc4ccccc4)n3)nc(N)c21` (stereo not drawn) [Example 80A, 4-amino-2-(8-benzylimidazo[1,2-a]pyrazin-6-yl)-5-isopropyl-5-methyl-5H-pyrrolo[2,3-d]pyrimidin-6(7H)-one], the Emax was found to be 125% and the half-maximal effective concentration (EC50) was determined as 66 nM.

On to `CCn1cc(C2(C)C(=O)Nc3nc(-c4cn5ccnc5c(Cc5ccc(F)cc5)n4)nc(N)c32)nn1` (stereo not drawn) [Example 64A, 4-amino-5-(1-ethyl-1H-1,2,3-triazol-4-yl)-2-(8-(4-fluorobenzyl)imidazo[1,2-a]pyrazin-6-yl)-5-methyl-5H-pyrrolo[2,3-d]pyrimidin-6(7H)-one], for which the Emax turned out to be 115% and the EC50 was found to be 196 nM.

With `CC1(c2ccc(F)cc2)C(=O)Nc2nc(-c3cn4cc(C(F)(F)F)nc4c(CCC(F)(F)C(F)(F)F)n3)nc(N)c21` (stereo not drawn) [Example 156A, 4-amino-5-(4-fluorophenyl)-5-methyl-2-(8-(3,3,4,4,4-pentafluorobutyl)-2-(trifluoromethyl)imidazo[1,2-a]pyrazin-6-yl)-5H-pyrrolo[2,3-d]pyrimidin-6(7H)-one], the Emax was 92% and the half-maximal effective concentration (EC50) is 163 nM.

For the compound `C[C@@H]1CN(c2nc(-c3cn4ccnc4c(CCC(F)(F)C(F)(F)F)n3)nc3c2C(C)(c2ccc(F)cc2)C(=O)N3)C[C@H](C)O1` (stereo partly drawn) [Example 303A, 4-((2R,6S)-2,6-dimethylmorpholino)-5-(4-fluorophenyl)-5-methyl-2-(8-(3,3,4,4,4-pentafluorobutyl)imidazo[1,2-a]pyrazin-6-yl)-5H-pyrrolo[2,3-d]pyrimidin-6(7H)-one], the Emax worked out at 101% and the response was half-maximal at 425 nM (EC50).

Compound `CC1(c2ccc(F)cc2)C(=O)Nc2nc(-c3cn4ccnc4c(Cc4cccc(F)c4)n3)nc(N)c21` (single isomer, unassigned) [Example 90B, 4-amino-2-(8-(3-fluorobenzyl)imidazo[1,2-a]pyrazin-6-yl)-5-(4-fluorophenyl)-5-methyl-5H-pyrrolo[2,3-d]pyrimidin-6(7H)-one] returned an EC50 of 140 nM. Also, the “% Act.” value (percent activation relative to standard Compound A in CHO-K1/sGC cells) worked out at 129%.

Regarding `CC1(c2ccc(Cl)cc2)C(=O)Nc2nc(-c3cn4ccnc4c(Cc4cccc(Cl)c4)n3)nc(N)c21` (stereo not drawn) [Example 95A, 4-amino-2-(8-(3-chlorobenzyl)imidazo[1,2-a]pyrazin-6-yl)-5-(4-chlorophenyl)-5-methyl-5H-pyrrolo[2,3-d]pyrimidin-6(7H)-one], the Emax stood at 109% and it took 4 nM to reach a half-maximal effect (EC50).

In the case of `CCCCc1nc(-c2nc(N)c3c(n2)NC(=O)C3(c2cc(C(F)(F)F)ccn2)C2CC2)cn2ccnc12` (single isomer, unassigned) [Example 367B, 4-amino-2-(8-butylimidazo[1,2-a]pyrazin-6-yl)-5-cyclopropyl-5-(4-(trifluoromethyl)pyridin-2-yl)-5H-pyrrolo[2,3-d]pyrimidin-6(7H)-one], the Emax was determined as 170% and a half-maximal response (EC50) required 155 nM.

Take `CC(C)Cc1nc(-c2nc(N)c3c(n2)NC(=O)C3(C)c2ccc(Cl)cn2)cn2ccnc12` (stereo not drawn) [Example 125A, 4-amino-5-(5-chloropyridin-2-yl)-2-(8-isobutylimidazo[1,2-a]pyrazin-6-yl)-5-methyl-5H-pyrrolo[2,3-d]pyrimidin-6(7H)-one]: the Emax stood at 97% and a half-maximal response (EC50) required 41 nM.

With `CC1(c2ccc(C(F)(F)F)cn2)C(=O)Nc2nc(-c3cn4ccnc4c(CC4CCC4)n3)nc(N)c21` (stereo not drawn) [Example 119B, 4-amino-2-(8-(cyclobutylmethyl)imidazo [1,2-a]pyrazin-6-yl)-5-methyl-5-(5-(trifluoromethyl)pyridin-2-yl)-5H-pyrrolo[2,3-d]pyrimidin-6(7H)-one], the Emax was found to be 121% and a half-maximal response (EC50) required 161 nM.

For the compound `CC1(c2ccc(Cl)cc2)C(=O)Nc2nc(-c3cn4ccnc4cn3)nc(NCC(F)(F)F)c21` (stereo not drawn) [Example 288A, 5-(4-chlorophenyl)-2-(imidazo[1,2-a]pyrazin-6-yl)-5-methyl-4-((2,2,2-trifluoroethyl)amino)-5H-pyrrolo[2,3-d]pyrimidin-6(7H)-one], the Emax amounted to 119% and the EC50 worked out at 12 nM.

Turning to `CC1(C)C(=O)Nc2nc(-c3cn4cc(C(F)(F)F)nc4c(Cc4cccc(F)c4)n3)nc(N)c21` [Example 75, 4-amino-2-(8-(3-fluorobenzyl)-2-(trifluoromethyl)imidazo[1,2-a]pyrazin-6-yl)-5,5-dimethyl-5H-pyrrolo[2,3-d]pyrimidin-6(7H)-one], the Emax was 99% and the midpoint of the response, the EC50, lay at 862 nM.

On to `CC1(C(=O)NC2CC2)C(=O)Nc2nc(-c3cn4ccnc4c(Cc4ccccc4F)n3)nc(N)c21` (stereo not drawn) [Example 35A, 4-amino-N-cyclopropyl-2-(8-(2-fluorobenzyl)imidazo[1,2-a]pyrazin-6-yl)-5-methyl-6-oxo-6,7-dihydro-5H-pyrrolo[2,3-d]pyrimidine-5-carboxamide], for which the Emax was found to be 129% and it took 16 nM to reach a half-maximal effect (EC50).

Turning to `CC1(c2ccc(F)cc2)C(=O)Nc2nc(-c3cn4cc(C(F)(F)F)nc4c(Cc4cccc(F)c4)n3)nc(N)c21` (stereo not drawn) [Example 149A, 4-amino-2-(8-(3-fluorobenzyl)-2-(trifluoromethyl)imidazo[1,2-a]pyrazin-6-yl)-5-(4-fluorophenyl)-5-methyl-5H-pyrrolo[2,3-d]pyrimidin-6(7H)-one], the Emax was 111% and the EC50 amounted to 22 nM.

As to `COCCNc1nc(-c2cn3ccnc3c(CCC(F)(F)C(F)(F)F)n2)nc2c1C(C)(c1ccc(F)cn1)C(=O)N2` (stereo not drawn) [Example 293B, 5-(5-fluoropyridin-2-yl)-4-((2-methoxyethyl)amino)-5-methyl-2-(8-(3,3,4,4,4-pentafluorobutyl)imidazo[1,2-a]pyrazin-6-yl)-5H-pyrrolo[2,3-d]pyrimidin-6(7H)-one], the Emax worked out at 107% and a half-maximal response (EC50) required 509 nM.

Regarding `CC1(C)CN(c2nc(-c3cn4ccnc4c(CCC(F)(F)C(F)(F)F)n3)nc3c2C(C)(c2ccc(F)cc2)C(=O)N3)CCO1` (stereo not drawn) [Example 304A, 4-(2,2-dimethylmorpholino)-5-(4-fluorophenyl)-5-mehtyl-2-(8-(3,3,4,4,4-pentafluorobutyl)imidazo[1,2-a]pyrazin-6-yl)-5H-pyrrolo[2,3-d]pyrimidin-6(7H)-one], the Emax came to 89% and it took 415 nM to reach a half-maximal effect (EC50).

Regarding `COc1ccc(C2(C)C(=O)Nc3nc(-c4cn5ccnc5c(CCC(F)(F)C(F)(F)F)n4)nc(N)c32)cn1` (stereo not drawn) [Example 236B, 4-amino-5-(6-methoxypyridin-3-yl)-5-methyl-2-(8-(3,3,4,4,4-pentafluorobutyl)imidazo [1,2-a]pyrazin-6-yl)-5H-pyrrolo[2,3-d]pyrimidin-6(7H)-one], the Emax worked out at 91% and the half-maximal effective concentration (EC50) was determined as 35 nM.

Take `COCCNc1nc(-c2cn3ccnc3c(CCC(F)(F)C(F)(F)F)n2)nc2c1C(C)(c1ccc(F)cc1)C(=O)N2` (stereo not drawn) [Example 309A, 5-(4-fluorophenyl)-4-((2-methoxyethyl)amino)-5-methyl-2-(8-(3,3,4,4,4-pentafluorobutyl)imidazo[1,2-a]pyrazin-6-yl)-5H-pyrrolo[2,3-d]pyrimidin-6(7H)-one]: the Emax was found to be 97% and the 50% effective concentration (EC50) was 39 nM.
